One molecule from patent US6682763B2, “Skin-beautifying agent, anti-aging agent for the skin, whitening agent and external agent for the skin” (The Nisshin Oil Mills, Ltd., priority 1999, dated 2004) can be followed below.

The subject of the series is B-16 melanoma cells. The following applies: mouse, 5 days.

Method: If the culture system includes a substance capable of inhibiting the melanin-production during the proliferation, the darkening of the cells is suppressed, while the whitening thereof is promoted. Thus, the melanin-production-inhibitory function can be evaluated by comparing the degree of darkening of cells observed when any sample is not added with the degree of whitening of cells observed when the sample is added. In this connection, some of substances may be toxic to the B-16 melanoma cells. To evaluate this cytotoxicity, the cell-survival rate observed when a sample is not added is compared with that observed for the system free of any sample. The melanin-production-inhibitory function is evaluated using the cell-whitening degree and the cell-survival rate in combination.
Cytotoxicity Index=C/D <Formula 4>
In this respect, the term “cell-survival rate” herein used is defined by the following <Formula 5>:
Cell-Survival Rate(%)=(E/F)×100 <Formula 5>
E: Viable cell count observed for the system to which a sample is added.
F: Number of cells observed for the system free of any added test sample. […]
The rate of cell-survival can be calculated according to the aforementioned relation: <Formula 5>.

Take `OC[C@H]1O[C@@H](Oc2ccc(O)cc2)[C@H](O)[C@@H](O)[C@@H]1O` [arbutin]: the “concentration at N.D. (rate of cell survival not more than 10%)” value amounted to 500 ppm.
